Measurements taken from patent publication US11958857B1, “5-(1H-indol-3-yl)-1,3-substitutedpyrimido[4,5-d]pyrimidine-2,4,7(1H,3H,8H)-trione as anticancer agents” (KING FAISAL UNIVERSITY, priority 2023, dated 2024).

Tests used:
[1] = system: A2780 cells (ovarian cancer); assay: single dose MTT assay, A2780; format: cell-based; conditions: 10 μM, 48 h, Mean ± SEM of three independent experiments
Source text: (§1) All of the target compounds 5-(1H-indol-3-yl)-1,3-substituted pyrimido[4,5-d]pyrimidine-2,4,7(1H,3H,8H)-trione derivatives (4a-c) were subjected to a single dose MTT (3-(4,5-dimethylthiazol-2-yl)-2,5-diphenyltetrazolium bromide) assay to evaluate their cytotoxicity (growth-inhibiting activities) against the breast cancer (MCF-7, MDA-MB-231), ovarian cancer (A2780, SKOV-3) and cervical cancer (HELA) cell lines. Cell lines were obtained from ATCC (American Type Culture Collection). Doxorubicin was used as a positive control.
(§2) HELA and MCF-7 cells were seeded at 10000 cells/well, while MDA-MB-231, A2780, and SKOV-3 cells were seeded at 20000 cells/well in 96 well plates to ensure that cells were non-confluent and able to proliferate over the course of the assay period. After 24 h in culture, cells were treated with test compounds 5-(1H-indol-3-yl)-1,3-substituted pyrimido[4,5-d]pyrimidine-2,4,7(1H,3H,8H)-trione derivatives (4a-c) at a single dose of 10 μM concentration and incubated for 48 h. Cells were inspected under the microscope to detect any visible morphological changes. Cells were washed with PBS, and then the cells were treated with 100 μl of 1 mg/ml fresh filtered MTT suspended in a culture medium; the plates were covered with aluminum foil and incubated for 45 min. Cell viability was marked by the conversion of MTT to the dark-blue-colored formazan by mitochondrial dehydrogenases. DMSO was added to dissolve the insoluble purple formazan product, and optical density (OD) was measured by using a spectrophotometer at a wavelength of […]. The assay was performed in the dark as MTT is light-sensitive. Control wells of culture medium only (without cells) were included as blanks for absorbance measurements.
(§3) Cell viability was calculated according to the following formula: % Cell viability=(OD sample-OD blank/OD control-OD blank)×100 where the blank is given by wells without cells (medium only), control is untreated cells (100% viable).

[2] = system: MCF7 cells (breast cancer); assay: single dose MTT assay, MCF7; format: cell-based; conditions: 10 μM, 48 h, Mean ± SEM of three independent experiments
Source text: as §1, §2, §3

[3] = system: HeLa cells (cervical cancer); assay: single dose MTT assay, HeLa; format: cell-based; conditions: 10 μM, 48 h, Mean ± SEM of three independent experiments
Source text: as §1, §2, §3

[4] = system: MDA-MB-231 cells (breast cancer); assay: single dose MTT assay, MDA-MB-231; format: cell-based; conditions: 10 μM, 48 h, Mean ± SEM of three independent experiments
Source text: as §1, §2, §3

[5] = system: SKOV3 cells (ovarian cancer); assay: single dose MTT assay, SKOV3; format: cell-based; conditions: 10 μM, 48 h, Mean ± SEM of three independent experiments
Source text: as §1, §2, §3

Compound	Anticancer effect on cancer cell lines A2780 (proliferation percentage) [1]	melting point	Anticancer effect on cancer cell lines MCF7 (proliferation percentage) [2]	Anticancer effect on cancer cell lines HeLa (proliferation percentage) [3]	Anticancer effect on cancer cell lines MDA-MB-231 (proliferation percentage) [4]	Anticancer effect on cancer cell lines SKOV3 (proliferation percentage) [5]
O=c1nc(-c2c[nH]c3ccccc23)c2c(=O)[nH]c(=O)[nH]c2[nH]1 [Compound 4a, 5-(1H-Indol-3-Yl)Pyrimido[4,5-d]Pyrimidine-2,4,7(1H,3H,8H)-Trione]	78 ± 3.60	160 to 162 °C	98 ± 3.15	57 ± 6.13	82 ± 1.01	79 ± 0.92
O=c1nc(-c2c[nH]c3ccccc23)c2c(=O)[nH]c(=S)[nH]c2[nH]1 [Compound 4b, 4-(1H-Indol-3-Yl)-7-Thioxo-7,8-Dihydropyrimido[4,5-d]Pyrimidine-2,5(1H,6H)-Dione]	82 ± 4.05	180 to 182 °C	68 ± 4.57	59 ± 2.91	61 ± 6.00	69 ± 1.31
Cn1c(=O)c2c(-c3c[nH]c4ccccc34)nc(=O)[nH]c2n(C)c1=O [Compound 4c, 5-(1H-Indol-3-Yl)-1,3-Dimethylpyrimido[4,5-d]Pyrimidine-2,4,7(1H,3H,8H)-Trione]	63 ± 1.47	256 to 258 °C	44 ± 3.90	19 ± 1.58	62 ± 1.35	57 ± 3.40
